Laboratory results published in patent publication US9855268B2, “Triazolo[4,5-d]pyrimidine derivatives” (Merck Patent GmbH, priority 2013, dated 2018).

Legend:
GSK3β(h) = GSK3β(h) (Homo sapiens, UniProt P49841); assay: GSK3β radiometric kinase assay (33P-ATP, phospho GS2 peptide); assay type: biochemical; settings: read-out: IC50 GSK3β (enzyme assay)
Protocol: GSK3β(h) is incubated with 8 mM MOPS pH 7,0, 0,2 mM EDTA, 20 μM
[…](p)EDEEE (phosphor GS2 peptide), 10 mM Mg-acetate and [gamma-33P-ATP](specific activity approx. 500 cpm/Pmol, concentration as required). The reaction is initiated by the addition of the MgATP. After incubation for 40 minutes at the room temperature, the Reaction is stopped by the addition of 3% phosphoric acid solution. 10 μL of reaction is then spotted onto a P30 filtermat and washed three times for 5 minutes in 50 mM phosphoric acid and once in methanol prior to drying and scintillation counting.

GSK3α(h) = GSK3α(h) (Homo sapiens, UniProt P49840); assay: GSK3α radiometric kinase assay (33P-ATP, phospho GS2 peptide); assay type: biochemical; settings: read-out: IC50 GSK3α (enzyme assay)
Sequence of GSK3α(h) (P49840 whole entry): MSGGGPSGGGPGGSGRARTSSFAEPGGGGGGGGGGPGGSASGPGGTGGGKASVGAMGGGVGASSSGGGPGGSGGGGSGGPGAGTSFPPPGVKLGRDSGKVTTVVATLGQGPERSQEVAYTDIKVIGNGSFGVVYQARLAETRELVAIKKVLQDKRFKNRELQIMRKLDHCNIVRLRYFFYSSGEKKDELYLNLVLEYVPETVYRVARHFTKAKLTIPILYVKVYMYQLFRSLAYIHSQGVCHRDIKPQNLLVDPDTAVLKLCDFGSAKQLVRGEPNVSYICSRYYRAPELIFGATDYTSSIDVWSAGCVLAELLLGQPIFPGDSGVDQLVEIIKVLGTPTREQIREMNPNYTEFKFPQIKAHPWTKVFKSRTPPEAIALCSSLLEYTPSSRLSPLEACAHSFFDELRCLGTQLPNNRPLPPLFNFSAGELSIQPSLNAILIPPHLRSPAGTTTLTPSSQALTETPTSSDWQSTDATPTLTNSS
Outline: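 Human GSK3α incubated with 20 μM phospho-GS2 peptide in 8 mM MOPS pH 7,0, 10 mM Mg-acetate and [γ-33P]ATP (concentration as required), started with MgATP. After 40 minutes at room temperature, stopped with phosphoric acid; 33P incorporation measured by filtermat spotting and scintillation counting.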

GCN2 [1] = molecular target: T1, GCN2 (Homo sapiens, UniProt Q9P2K8); assay: Cellular assay of GCN2 activity (phospho-eIF2alpha immunocytochemistry after tryptophanol); assay type: cell-based; parameters: endogenous in cells; host or cells: U2OS; settings: Human U2OS cells, 2 h compound, 600 μM tryptophanol 30 min
Outline: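 Readout in human U2OS cells: compound pretreatment 2 h, then tryptophanol (600 μM final) for 30 min to trigger GCN2 signalling. Fixed, permeabilised cells quantified by immunocytochemistry for phosphorylation, normalised to DMSO controls as % effect; IC50 from concentration-response.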
Target sequence in this assay (Q9P2K8 whole entry): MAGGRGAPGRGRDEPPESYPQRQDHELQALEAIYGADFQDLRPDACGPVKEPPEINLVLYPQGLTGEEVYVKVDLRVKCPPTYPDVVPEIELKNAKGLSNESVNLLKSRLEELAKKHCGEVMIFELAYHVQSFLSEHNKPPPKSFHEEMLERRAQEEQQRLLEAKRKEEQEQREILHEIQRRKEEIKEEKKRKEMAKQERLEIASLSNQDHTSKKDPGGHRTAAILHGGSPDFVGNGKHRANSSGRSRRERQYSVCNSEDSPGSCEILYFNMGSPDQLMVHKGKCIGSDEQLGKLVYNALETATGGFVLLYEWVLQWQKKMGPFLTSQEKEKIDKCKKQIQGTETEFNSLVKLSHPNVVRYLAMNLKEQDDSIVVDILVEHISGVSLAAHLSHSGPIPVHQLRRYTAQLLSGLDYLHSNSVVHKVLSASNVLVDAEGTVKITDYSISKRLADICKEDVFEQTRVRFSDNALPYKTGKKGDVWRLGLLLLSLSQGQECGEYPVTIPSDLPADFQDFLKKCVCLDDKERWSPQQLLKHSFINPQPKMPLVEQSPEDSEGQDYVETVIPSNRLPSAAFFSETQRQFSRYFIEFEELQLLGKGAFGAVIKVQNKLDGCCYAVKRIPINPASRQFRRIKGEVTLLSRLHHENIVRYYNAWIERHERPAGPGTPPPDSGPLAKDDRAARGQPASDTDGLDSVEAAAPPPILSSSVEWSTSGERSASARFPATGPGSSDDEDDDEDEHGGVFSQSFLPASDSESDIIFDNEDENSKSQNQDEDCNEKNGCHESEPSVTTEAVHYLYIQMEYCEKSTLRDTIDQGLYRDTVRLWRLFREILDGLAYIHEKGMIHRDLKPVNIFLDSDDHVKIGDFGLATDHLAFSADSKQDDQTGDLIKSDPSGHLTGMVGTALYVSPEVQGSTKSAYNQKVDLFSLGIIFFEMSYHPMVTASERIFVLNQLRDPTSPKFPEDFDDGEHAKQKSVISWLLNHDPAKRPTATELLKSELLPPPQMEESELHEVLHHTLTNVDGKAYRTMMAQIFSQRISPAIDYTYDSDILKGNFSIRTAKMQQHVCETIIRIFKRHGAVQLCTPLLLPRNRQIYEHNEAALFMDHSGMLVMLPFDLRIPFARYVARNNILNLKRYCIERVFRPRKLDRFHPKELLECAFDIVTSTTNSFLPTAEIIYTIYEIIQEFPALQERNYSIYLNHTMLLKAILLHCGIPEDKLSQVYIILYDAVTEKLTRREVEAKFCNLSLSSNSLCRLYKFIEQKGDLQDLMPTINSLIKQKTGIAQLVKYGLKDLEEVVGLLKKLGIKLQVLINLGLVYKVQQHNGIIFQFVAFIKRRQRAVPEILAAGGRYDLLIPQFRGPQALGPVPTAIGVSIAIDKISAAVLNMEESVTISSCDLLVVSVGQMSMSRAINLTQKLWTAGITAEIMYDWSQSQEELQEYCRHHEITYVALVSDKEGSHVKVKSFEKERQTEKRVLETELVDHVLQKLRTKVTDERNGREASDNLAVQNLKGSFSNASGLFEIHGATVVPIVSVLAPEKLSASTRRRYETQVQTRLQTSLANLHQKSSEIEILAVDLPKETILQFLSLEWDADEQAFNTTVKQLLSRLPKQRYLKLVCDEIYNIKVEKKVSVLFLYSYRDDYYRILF

GCN2 [2] = molecular target: T1, GCN2; assay: GCN2 enzyme assay (TR-FRET Lanthascreen, GFP-eIF2alpha phosphorylation); assay type: biochemical; settings: 10 μM ATP, 80 nM GFP-eIF2a, 30 nM GCN2
Outline: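 Kinase reaction with 10 μM ATP and 80 nM GFP-labelled eIF2alpha substrate at room temperature, stopped with EDTA. Phospho-eIF2alpha detected by TR-FRET between antibody and GFP-substrate, excitation at 340 nm.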
Target sequence in this assay (Q9P2K8 whole entry, species assumed): as the sequence (Q9P2K8 whole entry) above

Sequence of GSK3β(h) (P49841 whole entry): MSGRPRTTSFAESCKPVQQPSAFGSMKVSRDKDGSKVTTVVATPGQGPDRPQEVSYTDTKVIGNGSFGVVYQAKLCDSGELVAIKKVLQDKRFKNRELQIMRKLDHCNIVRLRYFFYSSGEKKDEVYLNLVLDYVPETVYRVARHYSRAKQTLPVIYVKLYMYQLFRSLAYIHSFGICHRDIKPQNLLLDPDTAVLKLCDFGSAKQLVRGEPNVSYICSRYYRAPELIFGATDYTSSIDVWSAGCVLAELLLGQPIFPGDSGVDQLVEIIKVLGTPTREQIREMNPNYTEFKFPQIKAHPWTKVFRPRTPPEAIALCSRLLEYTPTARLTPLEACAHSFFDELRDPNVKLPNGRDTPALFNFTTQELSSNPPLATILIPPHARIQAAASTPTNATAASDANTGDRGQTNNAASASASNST

With `COCCn1cc(-c2ccc(-n3nnc4cnc(N[C@@H]5CC[C@H](N)C5)nc43)cc2)cn1` [A121, (1S,3R)—N3-(3-{4-[1-(2-methoxy-ethyl)-1H-pyrazol-4-yl]-phenyl}-3H-[1,2,3]triazolo[4,5-d]pyrimidin-5-yl)-cyclopentane-1,3-diamine] the IC50 (GSK3β(h)) was 1 to 5 µM, the IC50 (GSK3α(h)) was under 1 µM and the IC50 (GCN2 [1]) was 1 to 5 µM. For the same molecule, the IC50 (GCN2 [2]) was under 1 µM.
With `COc1ccc(-n2nnc3cnc(N[C@@H]4CC[C@H](CN)C4)nc32)cc1` [A122, ((1R,3S)-3-aminomethyl-cyclopentyl)-[3-(4-methoxy-phenyl)-3H-[1,2,3]triazolo[4,5-d]pyrimidin-5-yl]-amine] the IC50 (GSK3β(h)) was 1 to 5 µM, the IC50 (GSK3α(h)) was under 1 µM and the IC50 (GCN2 [1]) was 1 to 5 µM. It also gave an IC50 (GCN2 [2]) of under 1 µM.
`Cc1ccc2cc(-n3nnc4cnc(N[C@@H]5CC[C@@H](N)C5)nc43)ccc2n1` [A124, (1R,3R)—N-[3-(2-methyl-quinolin-6-yl)-3H-[1,2,3]triazolo[4,5-d]pyrimidin-5-yl]-cyclopentane-1,3-diamine] gave an IC50 (GSK3β(h)) of 1 to 5 µM, an IC50 (GSK3α(h)) of under 1 µM and an IC50 (GCN2 [1]) of 1 to 5 µM. For the same molecule, the IC50 (GCN2 [2]) was under 1 µM.
Molecule `CCOCCn1cc(-c2ccc(-n3nnc4cnc(N[C@@H]5CC[C@@H](N)C5)nc43)cc2)cn1` [A125, (1R,3R)—N-(3-{4-[1-(2-3thoxy-ethyl)-1H-pyrazol-4-yl]-phenyl}-3H-[1,2,3]triazolo[4,5-d]pyrimidin-5-yl)-cyclopentane-1,3-diamine] has an IC50 (GSK3β(h)) of 1 to 5 µM, an IC50 (GSK3α(h)) of under 1 µM and an IC50 (GCN2 [1]) of under 1 µM. It also gave an IC50 (GCN2 [2]) of under 1 µM.
In the case of `COCCOc1ccc(-n2nnc3cnc(N[C@@H]4CC[C@@H](C(N)=O)C4)nc32)cc1` [A135, (1R,3R)-3-{3-[4-(2-methoxy-ethoxy)-phenyl]-3H-[1,2,3]triazolo[4,5-d]pyrimidin-5-ylamino}-cyclopentanecarboxylic acid amide], the IC50 (GSK3β(h)) is reported as under 1 µM, the IC50 (GSK3α(h)) is reported as under 1 µM and the IC50 (GCN2 [1]) is reported as 1 to 5 µM. The IC50 (GCN2 [2]) was under 1 µM.
`Cc1nc2ccc(-n3nnc4cnc(N[C@@H]5CC[C@@H](C(N)=O)C5)nc43)cc2s1` [A147, (1R,3R)-3-[3-(2-methyl-benzothiazol-6-yl)-3H-[1,2,3]triazolo[4,5-d]pyrimidin-5-ylamino]-cyclopentanecarboxylic acid amide] was tested, and the IC50 (GSK3β(h)) was under 1 µM, the IC50 (GSK3α(h)) was under 1 µM and the IC50 (GCN2 [1]) was 1 to 5 µM. For the same molecule, the IC50 (GCN2 [2]) was under 1 µM.
For `CCOc1ccc(-n2nnc3cnc(N[C@@H]4CC[C@@H](C(N)=O)C4)nc32)cc1` [A150, (1R,3R)-3-[3-(4-ethoxy-phenyl)-3H-[1,2,3]triazolo[4,5-d]pyrimidin-5-ylamino]-cyclopentanecarboxylic acid amide], the IC50 (GSK3β(h)) was under 1 µM, the IC50 (GSK3α(h)) was under 1 µM and the IC50 (GCN2 [1]) was 1 to 5 µM. It also gave an IC50 (GCN2 [2]) of under 1 µM.
`NC(=O)[C@@H]1CC[C@@H](Nc2ncc3nnn(-c4ccc(OC[C@H](O)C(F)(F)F)cc4)c3n2)C1` [A151, (1R,3R)-3-{3-[4-((S)-3,3,3-trifluoro-2-hydroxy-propoxy)-phenyl]-3H-[1,2,3]triazolo[4,5-d]pyrimidin-5-ylamino}-cyclopentanecarboxylic acid amide] was tested, and the IC50 (GSK3β(h)) was under 1 µM, the IC50 (GSK3α(h)) was under 1 µM and the IC50 (GCN2 [1]) was 1 to 5 µM. The IC50 (GCN2 [2]) was under 1 µM.
`COc1ccc(-n2nnc3cnc(N[C@@H]4CC[C@@H](C(N)=O)C4)nc32)cc1F` [A152, (1R,3R)-3-[3-(3-fluoro-4-methoxy-phenyl)-3H-[1,2,3]triazolo[4,5-d]pyrimidin-5-ylamino]-cyclopentanecarboxylic acid amide] was tested, and the IC50 (GSK3β(h)) was under 1 µM, the IC50 (GSK3α(h)) was under 1 µM and the IC50 (GCN2 [1]) was 1 to 5 µM. It also gave an IC50 (GCN2 [2]) of under 1 µM.
`NC(=O)[C@@H]1CC[C@@H](Nc2ncc3nnn(-c4ccc(OCCO)cc4)c3n2)C1` [A153, (1R,3R)-3-{3-[4-(2-hydroxy-ethoxy)-phenyl]-3H-[1,2,3]triazolo[4,5-d]pyrimidin-5-ylamino}-cyclopentanecarboxylic acid amide] showed an IC50 (GSK3β(h)) of under 1 µM, an IC50 (GSK3α(h)) of under 1 µM and an IC50 (GCN2 [1]) of 5 to 10 µM. The IC50 (GCN2 [2]) was under 1 µM.
